The results in this text go back to ChEMBL document CHEMBL3244115 (1979).

The structures appear in SMILES notation.

Holding throughout (format): functional
Assay [1] concerns B16. Description: Antitumor activity against mouse B16 cells allografted in ip dosed BDF mouse assessed as 25% increase in life span administered for 9 days.
Assay [2] relates to B16. Description: Antitumor activity against mouse B16 cells allografted in BDF mouse assessed as increase in life span at 25 mg/kg, ip administered for 9 days relative to untreated control. The settings on record: route intraperitoneal.
Assay [3] deals with B16. Nature of the assay: Antitumor activity against mouse B16 cells allografted in BDF mouse assessed as increase in life span at 100 mg/kg, ip administered for 9 days relative to untreated control. The settings on record: route intraperitoneal.
Assay [4] relates to B16. Nature of the assay: Antitumor activity against mouse B16 cells allografted in BDF mouse assessed as increase in life span at 8 mg/kg, ip administered for 9 days relative to untreated control. The settings on record: route intraperitoneal.
Assay [5] has as its system B16. Nature of the assay: Antitumor activity against mouse B16 cells allografted in BDF mouse assessed as increase in life span at 4 mg/kg, ip administered for 9 days relative to untreated control. The settings on record: route intraperitoneal.

As for `NC(=O)Nc1cc(NC(N)=O)cc(N(CCCl)CCCl)c1`, the “log(1/C)” value with B16 [1] came out at 3.69. Moreover, in the assay with B16 [2], the T/C (commonly the ratio of treated to control) turned out to be 108%.
Consider `ClCCN(CCCl)c1ccc(/C=C/c2ccccc2)cc1`, for which, in the assay with B16 [1], the “log(1/C)” value is reported as 2.86. The T/C with B16 [3] is listed as 101%.
With `O=C(O)CCCc1ccc(N(CCCl)CCCl)cc1` [CHLORAMBUCIL], the “log(1/C)” value with B16 [1] amounted to 4.7. Also, in the assay with B16 [4], the T/C worked out at 133%.
`NC(Cc1ccc(N(CCCl)CCCl)cc1)C(=O)O` (stereo not drawn) [SARCOLYSIN]: the T/C in the assay on B16 [5] was determined as 236%. For the same compound, the “log(1/C)” value in the assay on B16 [1] is listed as 6.18.
